{
  "source": "patent US20260166162A1",
  "about": "“CARBON CHAIN SUBSTANCE FOR REGULATING TRANSMEMBRANE TRANSPORT AND FLUIDITY OF CELL MEMBRANES, AND PREPARATION AND USE THEREOF” (priority 2022, published 2026)",
  "key": {"293T cells": {"tested_on": "293T cells", "experiment": "Cellular phagocytosis of DiD-loaded lipid vesicles (nano-drugs) by 293T cells (Example II-51, Table II-29)", "type": "cell-based", "conditions": "293T cells pretreated 4 h, DiD lipid vesicles 2 h, n=3, untreated control 226.46 ± 1.26"}, "Neocopyovirus": {"tested_on": "Neocopyovirus", "type": "in vivo", "conditions": "1 mM; n=3"}, "Hela cells": {"tested_on": "Hela cells", "experiment": "Cell membrane fluidity (Laurdan fluorescence recovery) in Hela cells", "type": "cell-based"}, "[1]": {"tested_on": "HPV pseudovirus (HPV6-GFP)", "type": "cell-based", "conditions": "293FT cells pretreated 4 h, n=3"}, "[2]": {"tested_on": "SARS-CoV-2 pseudovirus (B.1.526.2)", "type": "cell-based"}, "rabies pseudovirus": {"tested_on": "rabies pseudovirus", "type": "cell-based"}},
  "note": "“And” between values parts separate entries of the source, which are not always exact repeats. Identical values can stand only once. Like-named read-outs stand apart in the source and are kept apart here.",
  "data": [
    {"compound": "O=C(O)CCCCCCC(=O)O", "note": "[octanedioic acid]", "values": [
      {"measurement": "Fluorescence intensity", "setting": "293T cells; 2 nM", "result": "108.61 ± 5.68"},
      {"measurement": "Fluorescence intensity", "setting": "293T cells; 5 nM", "result": "68.71 ± 4.36"},
      {"measurement": "Fluorescence intensity", "setting": "293T cells; 10 nM", "result": "68.98 ± 8.56"},
      {"measurement": "Fluorescence intensity", "setting": "293T cells; 50 nM", "result": "50.66 ± 5.66"},
      {"measurement": "Fluorescence intensity", "setting": "293T cells; 100 nM", "result": "44.30 ± 6.35"},
      {"measurement": "Fluorescence intensity", "setting": "293T cells; 1 uM", "result": "215.30 ± 5.36"},
      {"measurement": "Fluorescence intensity", "setting": "293T cells; 10 uM", "result": "349.34 ± 9.48"},
      {"measurement": "Fluorescence intensity", "setting": "293T cells; 50 uM", "result": "21.83 ± 1.85"},
      {"measurement": "Fluorescence intensity", "setting": "293T cells; 100 uM", "result": "2.79 ± 0.22"},
      {"measurement": "Fluorescence intensity", "setting": "Neocopyovirus", "result": "2.9 ± 0.22"},
      {"measurement": "Fluorescence recovery rate %", "setting": "Hela cells; 2 nM, 20 s", "result": 63.58, "unit": "%"},
      {"measurement": "Fluorescence recovery rate %", "setting": "Hela cells; 2 nM, 40 s", "result": 64.25, "unit": "%"},
      {"measurement": "Fluorescence recovery rate %", "setting": "Hela cells; 2 nM, 60 s", "result": 65.77, "unit": "%"},
      {"measurement": "Fluorescence recovery rate %", "setting": "Hela cells; 2 nM, 80 s", "result": 65.12, "unit": "%"},
      {"measurement": "Fluorescence recovery rate %", "setting": "Hela cells; 5 nM, 20 s", "result": 64.56, "unit": "%"},
      {"measurement": "Fluorescence recovery rate %", "setting": "Hela cells; 5 nM, 40 s", "result": 64.88, "unit": "%"},
      {"measurement": "Fluorescence recovery rate %", "setting": "Hela cells; 5 nM, 60 s", "result": 64.78, "unit": "%"},
      {"measurement": "Fluorescence recovery rate %", "setting": "Hela cells; 5 nM, 80 s", "result": 65.09, "unit": "%"},
      {"measurement": "Fluorescence recovery rate %", "setting": "Hela cells; 10 nM, 20 s", "result": 63.99, "unit": "%"},
      {"measurement": "Fluorescence recovery rate %", "setting": "Hela cells; 10 nM, 40 s", "result": 64.23, "unit": "%"},
      {"measurement": "Fluorescence recovery rate %", "setting": "Hela cells; 10 nM, 60 s", "result": 64.45, "unit": "%"},
      {"measurement": "Fluorescence recovery rate %", "setting": "Hela cells; 10 nM, 80 s", "result": 64.66, "unit": "%"},
      {"measurement": "Fluorescence recovery rate %", "setting": "Hela cells; 50 nM, 20 s", "result": 66.09, "unit": "%"},
      {"measurement": "Fluorescence recovery rate %", "setting": "Hela cells; 50 nM, 40 s", "result": 66.42, "unit": "%"},
      {"measurement": "Fluorescence recovery rate %", "setting": "Hela cells; 50 nM, 60 s", "result": 66.89, "unit": "%"},
      {"measurement": "Fluorescence recovery rate %", "setting": "Hela cells; 50 nM, 80 s", "result": 67.94, "unit": "%"},
      {"measurement": "Fluorescence recovery rate %", "setting": "Hela cells; 50 μM, 20 s", "result": 64.41, "unit": "%"},
      {"measurement": "Fluorescence recovery rate %", "setting": "Hela cells; 50 μM, 40 s", "result": 70.05, "unit": "%"},
      {"measurement": "Fluorescence recovery rate %", "setting": "Hela cells; 50 μM, 60 s", "result": 74.65, "unit": "%"},
      {"measurement": "Fluorescence recovery rate %", "setting": "Hela cells; 50 μM, 80 s", "result": 80.36, "unit": "%"},
      {"measurement": "Fluorescence recovery rate %", "setting": "Hela cells; 100 μM, 20 s", "result": 65.77, "unit": "%"},
      {"measurement": "Fluorescence recovery rate %", "setting": "Hela cells; 100 μM, 40 s", "result": 71.36, "unit": "%"},
      {"measurement": "Fluorescence recovery rate %", "setting": "Hela cells; 100 μM, 60 s", "result": 76.81, "unit": "%"},
      {"measurement": "Fluorescence recovery rate %", "setting": "Hela cells; 100 μM, 80 s", "result": 79.79, "unit": "%"}
    ]},
    {"compound": "Adenosine-erucic acid [Adenosine-C22-1]", "values": [
      {"measurement": "Fluorescence intensity", "setting": "293T cells; 2 nM", "result": "112.01 ± 8.24 and 99.55 ± 5.66"},
      {"measurement": "Fluorescence intensity", "setting": "293T cells; 5 nM", "result": "89.09 ± 4.19 and 46.06 ± 5.06"},
      {"measurement": "Fluorescence intensity", "setting": "293T cells; 1 uM", "result": "278.16 ± 8.15 and 299.00 ± 23.21"},
      {"measurement": "Fluorescence intensity", "setting": "293T cells; 10 uM", "result": "326.69 ± 10.13 and 171.00 ± 14.23"},
      {"measurement": "Inhibition rate (%)", "setting": "[1]; 2 nM", "result": "80.11 ± 3.66", "unit": "%"},
      {"measurement": "Inhibition rate (%)", "setting": "[1]; 5 nM", "result": "85.69 ± 4.23", "unit": "%"},
      {"measurement": "Inhibition rate (%)", "setting": "[1]; 10 nM", "result": "90.35 ± 4.69", "unit": "%"},
      {"measurement": "Inhibition rate (%)", "setting": "[1]; 50 nM", "result": "92.37 ± 3.35", "unit": "%"},
      {"measurement": "Inhibition rate (%)", "setting": "[1]; 100 nM", "result": "94.75 ± 1.67", "unit": "%"},
      {"measurement": "Inhibition rate (%)", "setting": "[1]; 1 μM", "result": "32.83 ± 2.37", "unit": "%"},
      {"measurement": "Inhibition rate (%)", "setting": "[1]; 10 μM", "result": "54.26 ± 1.83", "unit": "%"},
      {"measurement": "Inhibition rate (%)", "setting": "[1]; 50 μM", "result": "91.84 ± 3.95", "unit": "%"},
      {"measurement": "Inhibition rate (%)", "setting": "[1]; 100 μM, negative value = promotes infection", "result": "94.11 ± 2.69", "unit": "%"},
      {"measurement": "Inhibition rate (%)", "setting": "[2]; 0.002 µM", "result": "50.54 ± 1.57", "unit": "%"},
      {"measurement": "Inhibition rate (%)", "setting": "[2]; 0.005 µM", "result": "60.66 ± 1.59", "unit": "%"},
      {"measurement": "Inhibition rate (%)", "setting": "[2]; 0.01 µM", "result": "58.34 ± 1.25", "unit": "%"},
      {"measurement": "Inhibition rate (%)", "setting": "[2]; 0.05 µM", "result": "57.33 ± 1.58", "unit": "%"},
      {"measurement": "Inhibition rate (%)", "setting": "[2]; 0.1 µM", "result": "64.66 ± 8.23", "unit": "%"},
      {"measurement": "Inhibition rate (%)", "setting": "[2]; 1 µM", "result": "-22.83 ± 0.93", "unit": "%"},
      {"measurement": "Inhibition rate (%)", "setting": "[2]; 10 µM", "result": "-44.26 ± 1.26", "unit": "%"},
      {"measurement": "Inhibition rate (%)", "setting": "[2]; 50 µM", "result": "81.44 ± 0.54", "unit": "%"},
      {"measurement": "Inhibition rate (%)", "setting": "[2]; 100 µM", "result": "90.08 ± 1.21", "unit": "%"}
    ]},
    {"compound": "Ascorbic acid-eicosapentaenoic acid", "values": [
      {"measurement": "Fluorescence intensity", "setting": "Neocopyovirus", "result": "2.9 ± 0.68"}
    ]},
    {"compound": "Glucosamine-docosahexaenoic acid", "values": [
      {"measurement": "Fluorescence intensity", "setting": "Neocopyovirus", "result": "3.1 ± 0.65"}
    ]},
    {"compound": "Glucose-oleic acid", "values": [
      {"measurement": "Fluorescence intensity", "setting": "293T cells; 2 nM", "result": "102.16 ± 8.65"},
      {"measurement": "Fluorescence intensity", "setting": "293T cells; 5 nM", "result": "92.37 ± 4.56"},
      {"measurement": "Fluorescence intensity", "setting": "293T cells; 10 nM", "result": "65.99 ± 6.23"},
      {"measurement": "Fluorescence intensity", "setting": "293T cells; 100 nM", "result": "71.02 ± 4.02"},
      {"measurement": "Fluorescence intensity", "setting": "293T cells; 1 uM", "result": "436.71 ± 15.66"},
      {"measurement": "Fluorescence intensity", "setting": "293T cells; 10 uM", "result": "216.29 ± 5.24"},
      {"measurement": "Fluorescence intensity", "setting": "293T cells; 50 uM", "result": "42.89 ± 2.32"},
      {"measurement": "Fluorescence intensity", "setting": "293T cells; 100 uM", "result": "26.41 ± 5.32"},
      {"measurement": "Inhibition rate (%)", "setting": "rabies pseudovirus; 0.002 µM", "result": "50.11 ± 3.11", "unit": "%"},
      {"measurement": "Inhibition rate (%)", "setting": "rabies pseudovirus; 0.005 µM", "result": "65.69 ± 6.69", "unit": "%"},
      {"measurement": "Inhibition rate (%)", "setting": "rabies pseudovirus; 0.01 µM", "result": "80.35 ± 2.06", "unit": "%"},
      {"measurement": "Inhibition rate (%)", "setting": "rabies pseudovirus; 0.05 µM", "result": "72.37 ± 3.37", "unit": "%"},
      {"measurement": "Inhibition rate (%)", "setting": "rabies pseudovirus; 0.1 µM", "result": "71.05 ± 2.54", "unit": "%"},
      {"measurement": "Inhibition rate (%)", "setting": "rabies pseudovirus; 1 µM", "result": "-14.84 ± 1.54", "unit": "%"},
      {"measurement": "Inhibition rate (%)", "setting": "rabies pseudovirus; 10 µM", "result": "-33.5 ± 2.54", "unit": "%"},
      {"measurement": "Inhibition rate (%)", "setting": "rabies pseudovirus; 50 µM", "result": "70.04 ± 5.07", "unit": "%"},
      {"measurement": "Inhibition rate (%)", "setting": "rabies pseudovirus; 100 µM", "result": "80.21 ± 5.30", "unit": "%"}
    ]}
  ]
}
